Consider 22 compounds from patent US9139532B2, “Pyrazolyl guanidine F1F0-atpase inhibitors and therapeutic uses thereof” (Lycera Corporation, priority 2010, dated 2015).

The target in one assay is T1, F1F0-ATPase (Bos taurus, UniProt P13621).
T1 construct: from tissue
Kind of assay: Inhibition of F1F0-ATPase activity in synthesizing ATP. Particulars: inhibition of ATP synthesis by F1F0-ATPase; read-out: ATP Syn IC50. The format is biochemical.

The test system of a further assay is Ramos cells. Kind of assay: Cytotoxicity in Ramos cells. The note with it: cytotoxicity in Ramos cells, read-out: Ramos Cell EC50. The format is cell-based.

Read-outs that look alike come from different tables or passages of the source. Where only a bound is given, the exact number is not on record here.

Take `COCC(C)(C)NC(=NC(=O)c1ccc(F)cc1)Nc1cc(-c2ccc(F)cc2)n[nH]1` [Compound A-505]: the 50% inhibitory concentration (IC50) at F1F0-ATPase is under 10 µM. In the assay on Ramos cells (Homo sapiens), the EC50 is under 10 µM.

Regarding `COCCOCC(C)(C)N/C(=N/C(=O)c1cccc(C#N)c1)Nc1cc(-c2ccc(F)cc2)n[nH]1` [Compound A-506], on F1F0-ATPase, the IC50 was under 10 µM. The EC50 with Ramos cells was under 10 µM.

Turning to `CC(C)(C)N/C(=N/C(=O)c1ccc(O)cc1)Nc1cc(-c2ccc(F)cc2)n[nH]1` [Compound A-509], on F1F0-ATPase, the half-inhibitory concentration (IC50) was under 10 µM. Further, in the assay with Ramos cells, the EC50 was under 10 µM.

For `N#Cc1cccc(C(=O)/N=C(\Nc2cc(-c3ccc(F)cc3)[nH]n2)N[C@@H]2CCOC2)c1` [Compound A-510], on F1F0-ATPase, the concentration for half-maximal inhibition (IC50) was under 10 µM. The EC50 in the assay on Ramos cells was under 10 µM.

Turning to `O=C(N=C(Nc1cc(-c2ccc(F)cc2)[nH]n1)NC1CCOC1)c1ccc(F)cc1` (centres unmarked) [Compound A-511], the half-maximal inhibitory concentration (IC50) on F1F0-ATPase was under 10 µM. The EC50 with Ramos cells is under 10 µM.

With `CC(C)NC(=NC(=O)c1ccc(F)cc1)Nc1cc(-c2ccc(F)cc2)[nH]n1` [Compound A-512], the IC50 at F1F0-ATPase was under 10 µM. Further, the EC50 in the assay with Ramos cells (Homo sapiens) was under 10 µM.

For `CC(C)CN/C(=N/C(=O)c1ccc(F)cc1)Nc1cc(-c2ccc(F)cc2)[nH]n1` [Compound A-513], the IC50 at F1F0-ATPase was under 10 µM. For the same compound, the EC50 in the assay with Ramos cells is under 10 µM.

With `CC(C)(C)CN/C(=N/C(=O)c1ccc(F)cc1)Nc1cc(-c2ccc(F)cc2)[nH]n1` [Compound A-514], the IC50 at F1F0-ATPase was under 10 µM. The EC50 in the assay on Ramos cells is under 10 µM.

As to `COc1ccc(C(=O)/N=C(/NCC(C)(C)C)Nc2cc(-c3ccc(F)cc3)[nH]n2)cc1` [Compound A-515], the half-maximal inhibitory concentration (IC50) at F1F0-ATPase was under 10 µM. The concentration giving a half-maximal response (EC50) in the assay with Ramos cells was under 10 µM.

On to `COc1cccc(C(=O)N=C(NCC(C)(C)C)Nc2cc(-c3ccc(F)cc3)n[nH]2)c1` [Compound A-516], for which the concentration for half-maximal inhibition (IC50) on F1F0-ATPase was under 10 µM. In the assay with Ramos cells (Homo sapiens), the EC50 is under 10 µM.

As to `CC(C)(C)CN/C(=N/C(=O)c1cccc(C#N)c1)Nc1cc(-c2ccc(F)cc2)[nH]n1` [Compound A-517], the IC50 on F1F0-ATPase is under 10 µM. Moreover, in the assay on Ramos cells, the EC50 was under 10 µM.

For the compound `COc1ccc(C(=O)N=C(Nc2cc(-c3ccc(F)cc3)n[nH]2)NC2CCCC2)cc1` [Compound A-518], the half-inhibitory concentration (IC50) on F1F0-ATPase is under 10 µM. Further, the EC50 in the assay on Ramos cells (Homo sapiens) is under 10 µM.

With `COc1cccc(C(=O)N=C(Nc2cc(-c3ccc(F)cc3)n[nH]2)NC2CCCC2)c1` [Compound A-519], at F1F0-ATPase, the half-maximal inhibitory concentration (IC50) was under 10 µM. Also, the EC50 in the assay on Ramos cells (Homo sapiens) is under 10 µM.

`N#Cc1cccc(C(=O)/N=C(\Nc2cc(-c3ccc(F)cc3)[nH]n2)NC2CCCC2)c1` [Compound A-520]: the half-maximal inhibitory concentration (IC50) at F1F0-ATPase is under 10 µM. The EC50 in the assay with Ramos cells is under 10 µM.

Consider `O=C(N=C(Nc1cc(-c2ccc(F)cc2)n[nH]1)NC1CCCC1)c1ccc(F)cc1` [Compound A-521], for which the IC50 on F1F0-ATPase was under 10 µM. In addition, the half-maximal effective concentration (EC50) in the assay with Ramos cells (Homo sapiens) was under 10 µM.

With `CC(C)(C)CNC(=NC(=O)c1ccc(F)c(F)c1)Nc1cc(-c2ccc(F)cc2)n[nH]1` [Compound A-522], the IC50 at F1F0-ATPase was under 10 µM. In addition, in the assay on Ramos cells (Homo sapiens), the concentration giving a half-maximal response (EC50) is under 10 µM.

For the compound `COc1ccc(C(=O)/N=C(\Nc2cc(-c3ccc(F)cc3)[nH]n2)NC(C)C)cc1` [Compound A-523], the 50% inhibitory concentration (IC50) on F1F0-ATPase was under 10 µM. In addition, the EC50 in the assay with Ramos cells was over 10 µM.

As to `COc1cccc(C(=O)/N=C(\Nc2cc(-c3ccc(F)cc3)[nH]n2)NC(C)C)c1` [Compound A-524], on F1F0-ATPase, the half-maximal inhibitory concentration (IC50) was under 10 µM. In the assay on Ramos cells, the 50% effective concentration (EC50) was under 10 µM.

Consider `CC(C)(C)NC(=NC(=O)c1cccc(O)c1)Nc1cc(-c2ccc(F)cc2)n[nH]1` [Compound A-525], for which the half-maximal inhibitory concentration (IC50) at F1F0-ATPase was under 10 µM. For the same compound, the EC50 in the assay with Ramos cells (Homo sapiens) was under 10 µM.

As for `COC[C@H](C)N/C(=N/C(=O)c1cccc(C#N)c1)Nc1cc(-c2ccc(F)cc2)[nH]n1` [Compound A-526], the IC50 on F1F0-ATPase was under 10 µM. In addition, the EC50 in the assay on Ramos cells was over 10 µM.

Turning to `CC(C)(C)NC(=NC(=O)c1cccc(C#N)c1)Nc1cc(-c2ccc(F)cc2)n[nH]1` [Compound A-527], the IC50 on F1F0-ATPase was under 10 µM. Moreover, the concentration giving a half-maximal response (EC50) in the assay with Ramos cells (Homo sapiens) is under 10 µM.

As for `COCC(C)NC(=NC(=O)c1ccc(C#N)cc1)Nc1cc(-c2ccc(F)cc2)n[nH]1` (centres unmarked) [Compound A-528], the half-maximal inhibitory concentration (IC50) at F1F0-ATPase was under 10 µM. For the same compound, the EC50 in the assay with Ramos cells (Homo sapiens) is over 10 µM.

What is called IC50 is the point on the concentration scale where inhibition reaches its midpoint. For orientation: EC50 means the concentration needed to bring the measured effect to its halfway point.
